In PubChem BioAssay AID328 (DTP/NCI, 2004):
“And” between values parts separate entries of the source, which are not always exact repeats. Equal values may be shown once. Inconclusive results and toxic doses are left out.

Tested on: BDF1 mice, P388 leukemia ip, median survival T/C
Assay: NCI In Vivo Anticancer Drug Screen. Data for tumor model P388 Leukemia (intraperitoneal) in B6D2F1 (BDF1) mice
Settings: endpoint: median survival time, higher = longer survival
Summary of the method: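 Antitumour effect was judged in vivo: survival in drug-treated mice, normalised to that of vehicle-dosed controls, gives the reported T/C.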

[1] = dose: 50.0 mg/kg/injection, schedule: Q01DX009 (ip), vehicle: saline
[2] = dose: 100.0 mg/kg/injection, schedule: Q01DX009 (ip), vehicle: Klucel (hydroxypropylcellulose) (HPC)
[3] = dose: 200.0 mg/kg/injection, schedule: Q01DX009 (ip), vehicle: Klucel (hydroxypropylcellulose) (HPC)
[4] = dose: 400.0 mg/kg/injection, schedule: Q01DX009 (ip), vehicle: Klucel (hydroxypropylcellulose) (HPC)
[5] = dose: 400.0 mg/kg/injection, schedule: Q04DX003 (ip), vehicle: Klucel (hydroxypropylcellulose) (HPC)
[6] = dose: 50.0 mg/kg/injection, schedule: Q01DX009 (ip), vehicle: saline with Tween-80
[7] = dose: 100.0 mg/kg/injection, schedule: Q01DX009 (ip), vehicle: saline with Tween-80
[8] = dose: 100.0 mg/kg/injection, schedule: Q04DX003 (ip), vehicle: saline
[9] = dose: 200.0 mg/kg/injection, schedule: Q04DX003 (ip), vehicle: saline
[10] = dose: 400.0 mg/kg/injection, schedule: Q04DX003 (ip), vehicle: saline
[11] = dose: 25.0 mg/kg/injection, schedule: Q01DX009 (ip), vehicle: saline
[12] = dose: 50.0 mg/kg/injection, schedule: Q04DX003 (ip), vehicle: saline with Tween-80
[13] = dose: 100.0 mg/kg/injection, schedule: Q04DX003 (ip), vehicle: saline with Tween-80
[14] = dose: 100.0 mg/kg/injection, schedule: Q01DX009 (ip), vehicle: saline

## Cc1cc[n+]2cc3c(ccc4ccccc43)c(C)c2c1
dose: 0.7 mg/kg/injection, schedule: Q01DX010 (ip), vehicle: carboxymethylcellulose (CMC)
  T/C: 110 % of control
dose: 1.5 mg/kg/injection, schedule: Q01DX010 (ip), vehicle: carboxymethylcellulose (CMC)
  T/C: 100 % of control
dose: 3.0 mg/kg/injection, schedule: Q01DX010 (ip), vehicle: carboxymethylcellulose (CMC)
  T/C: 110 % of control
dose: 6.0 mg/kg/injection, schedule: Q01DX010 (ip), vehicle: carboxymethylcellulose (CMC)
  T/C: 115 % of control
dose: 12.5 mg/kg/injection, schedule: Q01DX010 (ip), vehicle: carboxymethylcellulose (CMC)
  T/C: 110 % of control
dose: 25.0 mg/kg/injection, schedule: Q01DX010 (ip), vehicle: carboxymethylcellulose (CMC)
  T/C: 110 % of control

## CC1CC2=CC(=O)C=CC2(C)C2CCC3(C)C(O)CCC3C12 (centres undefined)
dose: 1.56 mg/kg/injection, schedule: Q01DX009 (ip), vehicle: Klucel (hydroxypropylcellulose) (HPC)
  T/C: 86 % of control
dose: 3.12 mg/kg/injection, schedule: Q01DX009 (ip), vehicle: Klucel (hydroxypropylcellulose) (HPC)
  T/C: 107 % of control
dose: 6.25 mg/kg/injection, schedule: Q01DX009 (ip), vehicle: Klucel (hydroxypropylcellulose) (HPC)
  T/C: 99 % of control
dose: 25.0 mg/kg/injection, schedule: Q01DX009 (ip), vehicle: Klucel (hydroxypropylcellulose) (HPC)
  T/C: 95 % of control
dose: 50.0 mg/kg/injection, schedule: Q01DX009 (ip), vehicle: Klucel (hydroxypropylcellulose) (HPC)
  T/C: 91 % of control
[1]
  T/C: 90 % of control
[2]
  T/C: 95 % of control and 97 % of control
dose: 100.0 mg/kg/injection, schedule: Q04DX003 (ip), vehicle: Klucel (hydroxypropylcellulose) (HPC)
  T/C: 91 % of control
[3]
  T/C: 96 % of control and 97 % of control
dose: 200.0 mg/kg/injection, schedule: Q04DX003 (ip), vehicle: Klucel (hydroxypropylcellulose) (HPC)
  T/C: 95 % of control
[4]
  T/C: 86 % of control and 88 % of control
[5]
  T/C: 87 % of control

## Nc1nc(N)nc(N)n1
[2]
  T/C: 90 % of control
[3]
  T/C: 90 % of control
[4]
  T/C: 100 % of control
dose: 800.0 mg/kg/injection, schedule: Q01DX009 (ip), vehicle: Klucel (hydroxypropylcellulose) (HPC)
  T/C: 100 % of control
dose: 2000.0 mg/kg/injection, schedule: Q01DX009 (ip), vehicle: Klucel (hydroxypropylcellulose) (HPC)
  T/C: 95 % of control

## CCOC(=O)Nc1cc2c(c(N)n1)N=C(CN(C)c1ccccc1)CN2
dose: 12.5 mg/kg/injection, schedule: Q01DX001 (ip), vehicle: Klucel (hydroxypropylcellulose) (HPC)
  T/C: 123 % of control
dose: 50.0 mg/kg/injection, schedule: Q01DX001 (ip), vehicle: Klucel (hydroxypropylcellulose) (HPC)
  T/C: 164 % of control
dose: 100.0 mg/kg/injection, schedule: Q01DX001 (ip), vehicle: Klucel (hydroxypropylcellulose) (HPC)
  T/C: 211 % of control

## CSc1nc(N)c2c(C(N)=O)cc(=O)[nH]c2n1
dose: 100.0 mg/kg/injection, schedule: Q04DX002 (ip), vehicle: saline with Tween-80
  T/C: 101 % of control
dose: 200.0 mg/kg/injection, schedule: Q04DX002 (ip), vehicle: saline with Tween-80
  T/C: 90 % of control

## CC(C(=O)c1ccc(Br)cc1)C(Br)c1ccccc1 (centres undefined)
[6]
  T/C: 90 % of control
[7]
  T/C: 113 % of control
[8]
  T/C: 88 % of control
dose: 200.0 mg/kg/injection, schedule: Q01DX009 (ip), vehicle: saline with Tween-80
  T/C: 88 % of control
[9]
  T/C: 99 % of control
dose: 400.0 mg/kg/injection, schedule: Q01DX009 (ip), vehicle: saline with Tween-80
  T/C: 97 % of control
[10]
  T/C: 91 % of control

## CC(=O)OCc1c(COC(C)=O)c(-c2ccc(Cl)c(Cl)c2)n2c1CCC2
dose: 12.5 mg/kg/injection, schedule: Q01DX009 (ip), vehicle: Klucel (hydroxypropylcellulose) (HPC)
  T/C: 114 % of control

## CC(=O)OC1C(OCc2ccccc2)OC(COCc2ccccc2)C(OC2OC(COCc3ccccc3)C(OCc3ccccc3)C(OCc3ccccc3)C2OCc2ccccc2)C1OCc1ccccc1 (centres undefined)
dose: 5.31 mg/kg/injection, schedule: Q01DX009 (ip), vehicle: Klucel (hydroxypropylcellulose) (HPC)
  T/C: 100 % of control and 104 % of control
dose: 10.62 mg/kg/injection, schedule: Q01DX009 (ip), vehicle: Klucel (hydroxypropylcellulose) (HPC)
  T/C: 100 % of control
dose: 21.25 mg/kg/injection, schedule: Q01DX009 (ip), vehicle: Klucel (hydroxypropylcellulose) (HPC)
  T/C: 87 % of control and 100 % of control

## NOCc1ccsn1
dose: 200.0 mg/kg/injection, schedule: Q04DX003 (ip), vehicle: other
  T/C: 95 % of control
dose: 400.0 mg/kg/injection, schedule: Q04DX003 (ip), vehicle: other
  T/C: 90 % of control

## C=C1CCC2C1C1C(C(C)C)CCC21C (centres undefined)
[6]
  T/C: 105 % of control
[7]
  T/C: 104 % of control

## Cc1cc(C)[s+]s1
dose: 0.78 mg/kg/injection, schedule: Q01DX009 (ip), vehicle: water
  T/C: 91 % of control
dose: 3.12 mg/kg/injection, schedule: Q01DX009 (ip), vehicle: water
  T/C: 97 % of control
dose: 6.25 mg/kg/injection, schedule: Q01DX009 (ip), vehicle: water
  T/C: 91 % of control

## CC1(C)N=C(N)N=C(N)N1c1ccc(CCCCc2ccc(Cl)c(S(=O)(=O)F)c2)c(Cl)c1
dose: 0.88 mg/kg/injection, schedule: Q01DX009 (ip), vehicle: saline
  T/C: 118 % of control
dose: 1.32 mg/kg/injection, schedule: Q01DX009 (ip), vehicle: saline
  T/C: 109 % of control
dose: 2.36 mg/kg/injection, schedule: Q04DX003 (ip), vehicle: saline
  T/C: 106 % of control
dose: 3.56 mg/kg/injection, schedule: Q04DX003 (ip), vehicle: saline
  T/C: 123 % of control
dose: 5.33 mg/kg/injection, schedule: Q04DX003 (ip), vehicle: saline
  T/C: 108 % of control
dose: 8.0 mg/kg/injection, schedule: Q04DX003 (ip), vehicle: saline
  T/C: 115 % of control
dose: 8.33 mg/kg/injection, schedule: Q04DX003 (ip), vehicle: saline
  T/C: 120 % of control
dose: 12.0 mg/kg/injection, schedule: Q01DX009 (ip), vehicle: saline
  T/C: 163 % of control
dose: 12.5 mg/kg/injection, schedule: Q04DX003 (ip), vehicle: saline
  T/C: 181 % of control
dose: 18.0 mg/kg/injection, schedule: Q01DX009 (ip), vehicle: saline
  T/C: 159 % of control
[11]
  T/C: 104 % of control
[1]
  T/C: 104 % of control
dose: 50.0 mg/kg/injection, schedule: Q04DX003 (ip), vehicle: saline
  T/C: 113 % of control

## O=C1C(C(O)c2ccccc2)SC(c2ccccc2)N1c1ccccc1 (centres undefined)
dose: 12.5 mg/kg/injection, schedule: Q04DX003 (ip), vehicle: Klucel (hydroxypropylcellulose) (HPC)
  T/C: 96 % of control
dose: 25.0 mg/kg/injection, schedule: Q04DX003 (ip), vehicle: Klucel (hydroxypropylcellulose) (HPC)
  T/C: 96 % of control
dose: 50.0 mg/kg/injection, schedule: Q04DX003 (ip), vehicle: Klucel (hydroxypropylcellulose) (HPC)
  T/C: 96 % of control
[5]
  T/C: 90 % of control

## O=[N+]([O-])c1ccc(C(O)Nc2nccs2)o1 (centres undefined)
dose: 25.0 mg/kg/injection, schedule: Q04DX003 (ip), vehicle: saline with Tween-80
  T/C: 95 % of control
[12]
  T/C: 100 % of control and 104 % of control
[13]
  T/C: 100 % of control

## N=C(N)c1ccc(C(=O)Oc2ccc([N+](=O)[O-])cc2)cc1
[12]
  T/C: 109 % of control
[13]
  T/C: 109 % of control
dose: 200.0 mg/kg/injection, schedule: Q04DX003 (ip), vehicle: saline with Tween-80
  T/C: 109 % of control

## NCCCC(=O)O
dose: 100.0 mg/kg/injection, schedule: Q01DX001 (ip), vehicle: saline
  T/C: 100 % of control
[8]
  T/C: 109 % of control
dose: 200.0 mg/kg/injection, schedule: Q01DX001 (ip), vehicle: saline
  T/C: 100 % of control
[9]
  T/C: 86 % of control
dose: 400.0 mg/kg/injection, schedule: Q01DX001 (ip), vehicle: saline
  T/C: 90 % of control
[10]
  T/C: 118 % of control

## C=Cc1ccc(Oc2ccccc2)cc1
[11]
  T/C: 104 % of control
[1]
  T/C: 104 % of control
[14]
  T/C: 109 % of control

## NC(=O)/C=C/C(=O)O
[11]
  T/C: 101 % of control
[1]
  T/C: 93 % of control
[14]
  T/C: 103 % of control
dose: 200.0 mg/kg/injection, schedule: Q01DX009 (ip), vehicle: saline
  T/C: 101 % of control

## O=[N+]([O-])c1cccc(OCCOc2ccc(S(=O)(=O)F)cc2)c1
[13]
  T/C: 100 % of control
dose: 400.0 mg/kg/injection, schedule: Q04DX003 (ip), vehicle: saline with Tween-80
  T/C: 100 % of control
